Laboratory results taken from patent US7135457B1, “Random peptides that bind to gastro-intestinal tract (GIT) transport receptors and related methods” (Cytogen Corporation, priority 1997, dated 2006).
Square brackets hold non-standard residues; d marks the D form. Peptide text beside a SMILES is read from it. * marks the point of attachment. Dansyl = CN(C)c1cccc2c(S(=O)(=O)*)cccc12

What was measured:
[1] = Peptide stability in simulated intestinal fluid (SIF); format: in vitro ADME; conditions: rank of relative stability to SIF, 1 = most stable
Description: The relative stability for ZElan031, ZElan053 and ZElan054 was determined in simulated intestinal fluid (SIF) SIF was made by dissolving 100 mg of pancreatin (Sigma cat# P-5 1625, lot# 122H0812) in 8.4 ml of phosphate stock solution, adjusting the pH to 7.5 with 0.2N NaOH and adjusting the volume to 10 ml with water.
Peptide (3.25 mg) was dissolved in 3.25 ml of 10,000 fold diluted SIF solution at 37° C. Aliquots (0.7 ml) of the digestion solution were then withdrawn at <1 min, 1 h, 3 h, and 21 h or 24 h. The samples were quickly passed through a syringe filter (Millipore Millex-GV 0.22 μm, part# SLGV025LS, lot# H2BM95250) and 300 μL of the filtered solution was immediately injected onto a Hewlett-Packard HPLC system equipped with a C-8 column (Applied Biosystems column and guard column: column-p/n 0711-0023 Spheri-5 ODS 5 μm, 220×4.6 mm). The products were eluted at 1.5 ml/min using an acetonitrile-water gradient. The major fluorescent peaks were collected, lyopholized and identified by MS analysis.

[2] = tested on: P100 fractions harvested from Caco-2 cells; experiment: Binding of dansylated peptides to P100 fractions and peptide/particle correlation; conditions: two consecutive assays; versus scrambled PAX2 control
Description: Binding of peptide and/or peptide-coated PLGA particles to membrane (P100) and cytosolic (S100) fractions was assessed by detection of the dansyl moiety incorporated in the peptide. Costar ninety six well ELISA plates were coated with S100 and P100 fractions (100 μg/ml in 0.05 M NaHCO3) overnight at 4° C. The plates were blocked with 0.5% bovine serum albumin in DPBS for 1 h at room temperature and washed 3 times in 1% BSA-DPBS. Peptide-coated particles or peptides were dispersed in the same buffer and added to the plates at concentrations in the range 0.0325-0.5 mg/well. […] The plates were incubated for 1 h at room temperature. The wells were washed 3 times in 1% BSA-DPBS and 100 μl of goat anti-mouse IgGλ:HRP antibody (Southern Biotechnology 1060-05; 1:10,000) was added per well. The plates were incubated for 1 h at room temperature. After washing 3 times in 1% BSA-DPBS 100 μl of TMB substrate (3,3′,5′,5-tetramethylbenzidine; Microwell Peroxidase Substrate System (Kirkegaard and Perry Laboratories 50-76-00)) was added and the optical density was measured at 650 nm at various time intervals.
Binding of dansylated peptides to P100 fractions was assessed to determine if peptide binding was predictive of peptide-coated particle binding.

[3] = tested on: polarized Caco-2 monolayers; experiment: Transport and uptake of GST-peptide fusions across/into polarized Caco-2 monolayers (anti-GST ELISA); format: in vitro ADME; conditions: 100 μg/ml GST fusion
Description: Transport and uptake of GST-peptide fusions and deletion derivatives across cultured polarized Caco-2 monolayers over 4 hours in HBSS buffer was examined using an anti-GST ELISA assay. In another experiment, transport and uptake of GST-peptide fusions and deletion derivatives across cultured polarized Caco-2 monolayers over 24 hours in serum-free medium (SFM) was examined using an anti-GST ELISA assay.
a) 4 h HBSS study: Transepithelial electrical flux (TER) across the Caco-2 monolayers grown on snapwells (passage 33; 23 days old) was measured to confirm monolayer integrity before beginning the experiment. The medium was removed and the cells were washed once with bHBSS. bHBSS containing 100 μM chloroquine was added and the cells were incubated for 2 h at 37° C. The bHBSS+chloroquine was replaced with 0.5 ml bHBSS containing GST-peptide fusions (100 μg/ml) and the cells were incubated as before. […] At 4 h, TER was measured, the apical medium was sampled and the apical reservoir was washed 6 times with HBSS. […]
b) 24 h SFM study: Transepithelial electrical flux (TER) across the Caco-2 monolayers grown on snapwells (passage 33; 23 days old) was measured to confirm monolayer integrity before beginning the experiment. […] After 24 hours, TER readings were taken, and samples from the basolateral and apical reservoirs were removed. […]

fixed Caco-2 cells = experiment: Effect of thrombin cleavage on binding of GST-peptide fusions to fixed Caco-2 cells; conditions: Caco-2
Description: Binding of intact and thrombin-cleaved GST-peptide fusions to fixed Caco-2 cells was compared.
Thirty micrograms of each GST-peptide was treated with bovine thrombin (1μ/ml; 0.4 NIH units; Sigma CN.T9681) for 18 h at room temperature in 20 mM Tris-HCl pH8.0, 150 mM NaCl, 2.5 mM CaCl2. Controls were similarly treated without addition of thrombin. Ten micrograms of each GST-peptide fusion was removed for PAGE analysis, and 10 μg of fusions were added in duplicate to the fixed Caco-2 cells before 5-fold serial dilutions (1% BPT diluent). The fusions were allowed to bind for 1 h at room temperature. Following 6 washes with 1% BPT, binding was assayed by ELISA.

[4] = tested on: fixed Caco-2 or C2BBe1 cells; experiment: ELISA of GST fusion proteins on fixed Caco-2 or C2BBe1 cells; format: binding; conditions: Caco-2
Description: Fixed Caco-2, C2BBe1, and A431 cell plates were prepared by growing cells on tissue culture treated microtiter plates. When cells were confluent, plates were fixed with 10% formaldehyde, washed twice with PBS and stored with 0.5% BSA-PBS at −20° C. […] The standard ELISA procedure was followed at this point.
The standard ELISA procedure was modified as follows. GST proteins were diluted to an appropriate concentration in PBS containing 1% BSA and 0.05% Tween20 (1% BPT), titered and incubated one hour at room temperature. Following five washes an anti-GST monoclonal antibody was added (Sigma, St. Louis Clone GST-2 diluted 1:10,000 in 1% BPT) and incubated one hour. After five more washes goat anti-mouse IgG2b-HRP was added (Southern Biotechnology Associates Inc., Birmingham, Ala., diluted 1:4000 in 1% BPT) and incubated one hour. After five washes plates were developed with TMB peroxidase substrate (Kirkegard and Perry, Gaithersburg, Md.). All data is presented with background binding subtracted.

[5] = Crossreactive binding of GST fusions to dansylated peptides; conditions: 0.5 μg/ml GST fusion

Row | Compound | Rel. Stab. [1] | transport (flux) across live Caco-2 monolayers, apical to basolateral [3] | binding to fixed Caco-2 or C2BBe1 cells relative to GST control [4] | other results
1 | C[C@@H](O)[C@H](NC(=O)[C@@H](N)CCCCNS(=O)(=O)c1cccc2c(N(C)C)cccc12)C(=O)N[C@@H](CCCNC(=N)N)C(=O)N[C@@H](CCCCN)C(=O)N[C@@H](CO)C(=O)N[C@@H](CO)C(=O)N[C@@H](CCCNC(=N)N)C(=O)N[C@@H](CO)C(=O)N[C@@H](CC(N)=O)C(=O)N1CCC[C@H]1C(=O)N[C@@H](CCCNC(=N)N)C(=O)NCC(=O)N[C@@H](CCCNC(=N)N)C(=O)N[C@@H](CCCNC(=N)N)C(=O)N[C@@H](Cc1c[nH]cn1)C(=O)N1CCC[C@H]1C(=O)NCC(N)=O [ZElan031] (H-K(Dansyl)TRKSSRSNPRGRRHPG-NH2) | 3 |  |  | 
2 | gst-RYKHDIGCDAGVDKKSSSVRGGCGAHSSPPRAGRGPRGTMVSRL [GST-DCX8] |  | higher flux than GST alone | bound | effect of thrombin cleavage on detection of binding to fixed Caco-2 cells (fixed Caco-2 cells): significantly reduced
3 | gst-SARDSCPAEDGSRAVRLNGVENANTRKSSRSNPRGRRHP [GST-P31] |  | higher flux than GST alone | bound | crossreactive binding to ZElan024 (P31) and ZElan018 (PAX2) [5]: no crossreactive binding

Continued, in another order:

Row | Rel. Stab. [1] | Compound | transport (flux) across live Caco-2 monolayers, apical to basolateral [3] | binding to fixed Caco-2 or C2BBe1 cells relative to GST control [4] | other results
4 | 1 | C[C@@H](O)[C@H](NC(=O)[C@@H](N)CCCCNS(=O)(=O)c1cccc2c(N(C)C)cccc12)C(=O)N[C@H](CCCNC(=N)N)C(=O)N[C@@H](CCCCN)C(=O)N[C@@H](CO)C(=O)N[C@@H](CO)C(=O)N[C@H](CCCNC(=N)N)C(=O)N[C@@H](CO)C(=O)N[C@@H](CC(N)=O)C(=O)N1CCC[C@H]1C(=O)N[C@H](CCCNC(=N)N)C(=O)NCC(=O)N[C@H](CCCNC(=N)N)C(=O)N[C@H](CCCNC(=N)N)C(=O)N[C@@H](Cc1c[nH]cn1)C(=O)N1CCC[C@H]1C(=O)NCC(N)=O [ZElan053, H2N-K(dns)TrKSSrSNPrGrrHPG-CONH2] (H-K(Dansyl)T[dR]KSS[dR]SNP[dR]G[dR][dR]HPG-NH2) |  |  | binding of dansylated peptide to P100 fractions [2]: binding at the highest dilution only
5 | 2 | C[C@@H](O)[C@H](NC(=O)[C@@H](N)CCCCNS(=O)(=O)c1cccc2c(N(C)C)cccc12)C(=O)N[C@@H](CCCNC(=N)N)C(=O)N[C@@H](CCCCN)C(=O)N[C@@H](CO)C(=O)N[C@@H](CO)C(=O)N[C@H](CCCNC(=N)N)C(=O)N[C@@H](CO)C(=O)N[C@@H](CC(N)=O)C(=O)N1CCC[C@H]1C(=O)N[C@@H](CCCNC(=N)N)C(=O)NCC(=O)N[C@H](CCCNC(=N)N)C(=O)N[C@@H](CCCNC(=N)N)C(=O)N[C@@H](Cc1c[nH]cn1)C(=O)N1CCC[C@H]1C(=O)NCC(N)=O [ZElan054, H2N-K(dns)TRKSSrSNPRGrRHPG-CONH2] (H-K(Dansyl)TRKSS[dR]SNPRG[dR]RHPG-NH2) |  |  | 
